Key:
PRD30N = settings: mutant PRD30N; ref [22], [23]; cited from earlier work
PRI50V = settings: mutant PRI50V; ref [22], [23]; cited from earlier work
[1] = system: PRI54M (PR with I54M mutation); assay: Fluorescence assay of HIV-1 protease inhibition; assay type: biochemical; settings: PRI54M vs PRWT
[2] = system: PRV82A (PR with V82A mutation); assay: Fluorescence assay of HIV-1 protease inhibition; assay type: biochemical; settings: PRV82A vs PRWT

| SMILES | Ki (PRD30N) | Ki (PRI50V) | increased Ki relative to PRWT [1] | increased Ki relative to PRWT [2] |
| --- | --- | --- | --- | --- |
| CC(C)CN(C[C@@H](O)[C@H](Cc1ccccc1)NC(=O)O[C@H]1CO[C@H]2OCC[C@H]21)S(=O)(=O)c1ccc(N)cc1 [DRV, darunavir] | 6.6 nM | ≤ 18 nM | – | – |
| COc1ccc(S(=O)(=O)N(CC(C)C)C[C@@H](O)[C@H](Cc2ccccc2)NC(=O)O[C@H]2CO[C@H]3O[C@@H]4OCC[C@@H]4[C@H]32)cc1 [Compound 1, GRL-0519] | – | – | 6-7 fold | 6-7 fold |

Source: paper PMC3574189 (Journal of medicinal chemistry, 2013)
